Target: T1, human TRH-DE (Homo sapiens, UniProt Q9UKU6)
T1 construct: expressed in transfected cells; host or cells: Expi 293 cells (transient expression), membrane fraction
T1 sequence (Q9UKU6 1-1069): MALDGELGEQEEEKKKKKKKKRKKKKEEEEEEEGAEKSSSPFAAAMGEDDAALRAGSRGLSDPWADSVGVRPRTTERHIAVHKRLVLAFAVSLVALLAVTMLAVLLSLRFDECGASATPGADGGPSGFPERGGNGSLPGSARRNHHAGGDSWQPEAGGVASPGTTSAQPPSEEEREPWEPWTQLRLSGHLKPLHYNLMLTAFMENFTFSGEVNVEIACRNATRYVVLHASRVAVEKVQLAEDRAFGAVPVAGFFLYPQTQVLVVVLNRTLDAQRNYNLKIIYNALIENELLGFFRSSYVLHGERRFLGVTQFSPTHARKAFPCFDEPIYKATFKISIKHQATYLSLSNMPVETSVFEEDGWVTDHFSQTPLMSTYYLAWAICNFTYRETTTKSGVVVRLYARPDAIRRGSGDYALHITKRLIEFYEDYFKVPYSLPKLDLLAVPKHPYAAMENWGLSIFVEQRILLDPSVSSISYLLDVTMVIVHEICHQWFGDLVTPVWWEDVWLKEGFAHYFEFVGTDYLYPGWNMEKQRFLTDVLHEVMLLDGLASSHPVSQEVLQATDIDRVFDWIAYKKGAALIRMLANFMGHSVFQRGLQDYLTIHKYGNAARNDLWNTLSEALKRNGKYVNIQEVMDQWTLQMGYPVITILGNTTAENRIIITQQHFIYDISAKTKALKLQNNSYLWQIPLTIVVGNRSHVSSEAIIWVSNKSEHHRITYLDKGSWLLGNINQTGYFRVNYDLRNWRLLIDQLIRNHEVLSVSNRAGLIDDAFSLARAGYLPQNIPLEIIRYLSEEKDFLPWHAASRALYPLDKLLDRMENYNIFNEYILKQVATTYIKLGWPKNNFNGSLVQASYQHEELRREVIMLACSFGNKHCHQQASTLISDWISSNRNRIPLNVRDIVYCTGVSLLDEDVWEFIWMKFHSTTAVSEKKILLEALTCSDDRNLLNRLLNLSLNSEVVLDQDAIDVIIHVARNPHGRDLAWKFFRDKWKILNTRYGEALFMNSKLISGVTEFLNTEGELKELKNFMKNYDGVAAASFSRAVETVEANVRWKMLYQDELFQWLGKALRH
Experiment: TRH-DE inhibition test (RapidFire MS measurement of product Cyclo (His-Pro))
Format: biochemical
Conditions: membrane fraction of Expi 293 cells expressing human TRH-DE; 10 μM TRH substrate; room temperature, 2 hours; 16-point concentration test
Method: The compounds described in “1. […] The enzyme inhibitory activity of each of the compounds was evaluated by measuring the amount of the product Cyclo (His-Pro) of the enzyme reaction using a RapidFire RF 365 HTMS system (manufactured by Agilent Technologies, Inc.) connected to a triple quadrupole mass spectrometer (API 4000, manufactured by SCIEX). A membrane fraction prepared from Expi 293 cells transiently expressing human TRH-DE was used as an enzyme. The membrane fraction was suspended in 4 μg/ml of a reaction buffer (50 mM sodium phosphate (pH 7.4), 25 mM NaCl, 0.01% Triton […], and 200 μM bacitracin) and mixed with the test compound at each concentration. 10 μM […]), which was a substrate, was added, and the mixture was reacted at room temperature for 2 hours. The reaction was stopped in the same amount of a solution of acetonitrile:methanol (1:1) containing 1 μM of the stable isotope Cyclo ([…]) as an internal standard, and the supernatant was collected after centrifugation. In the RapidFire RF 365 HTMS system, a portion of the supernatant was aspirated, loaded onto a Graphic Carbon column (manufactured by Agilent Technologies, Inc.) with a buffer A (water, 0.09% formic acid, 0.01% trifluoroacetic acid) and washed with ultrapure water. Next, washing was performed with acetonitrile. The contents in the column were eluted with a buffer B (80% acetonitrile, 0.09% formic acid, 0.01% trifluoroacetic acid) and injected into a mass spectrometer for analysis. […] The ESI voltage was set to 5,500 V and the temperature was set to 650° C. For the calculation of the inhibition rate, a Ratio value corrected by dividing the product amount by the internal standard amount was used. The inhibition rate (%) was calculated by % Inhibition={1-(Ratio value of sample-Ratio value of blank)/(Ratio value of control-Ratio value of blank)}×100. The IC50 value was calculated from the concentration reactivity test at 16 points.

IC50 | Structure (SMILES)
49 nM | CC1CCc2ncccc2C(=O)N1C1CC2(C1)CN(S(=O)(=O)c1ccccc1F)C2 (racemic) [Example 87]
147 nM | CC1CCc2ncc(F)cc2C(=O)N1C1CC2(C1)CN(S(=O)(=O)c1ccccc1F)C2 (racemic) [Example 88]
286 nM | CC1CCc2ncc(C(F)(F)F)cc2C(=O)N1C1CC2(C1)CN(S(=O)(=O)c1ccccc1F)C2 (racemic) [Example 89]
12 nM | CC1CCc2nc(C(F)(F)F)sc2C(=O)N1C1CC2(C1)CN(S(=O)(=O)c1ccccc1F)C2 (racemic) [Example 92]
4 nM | CC1CCc2nc(C3CC3)sc2C(=O)N1C1CC2(C1)CN(S(=O)(=O)c1ccccc1F)C2 (racemic) [Example 93]
4 nM | CC1CCc2nc(C3(F)CC3)sc2C(=O)N1C1CC2(C1)CN(S(=O)(=O)c1ccccc1F)C2 (racemic) [Example 94]
21 nM | CC1CCc2sc(C(F)(F)F)nc2C(=O)N1C1CC2(C1)CN(S(=O)(=O)c1ccccc1F)C2 (racemic) [Example 98]
6 nM | CC1CCc2nc(C3CC3)oc2C(=O)N1C1CC2(C1)CN(S(=O)(=O)c1ccccc1F)C2 (racemic) [Example 102]
14 nM | CC1c2cc(C(F)(F)F)cnc2C(=O)N(C2CC3(C2)CN(S(=O)(=O)c2ccccc2F)C3)C1C (racemic) [Example 106]
18 nM | CC1CCC2CC2C(=O)N1C1CC2(C1)CN(S(=O)(=O)c1ccccc1F)C2 (racemic) [Example 107]
32 nM | CC1C=Cc2cc(C(F)(F)F)cnc2C(=O)N1C1CC2(C1)CN(S(=O)(=O)c1ccccc1F)C2 (racemic) [Example 112]
26 nM | CC1C=Cc2ncccc2C(=O)N1C1CC2(C1)CN(S(=O)(=O)c1ccccc1F)C2 (racemic) [Example 113]
61 nM | CC1C=Cc2ncc(F)cc2C(=O)N1C1CC2(C1)CN(S(=O)(=O)c1ccccc1F)C2 (racemic) [Example 114]
83 nM | CC1C=Cc2ncc(C(F)(F)F)cc2C(=O)N1C1CC2(C1)CN(S(=O)(=O)c1ccccc1F)C2 (racemic) [Example 115]
25 nM | CC1C=Cc2nc(C(F)(F)F)sc2C(=O)N1C1CC2(C1)CN(S(=O)(=O)c1ccccc1F)C2 (racemic) [Example 118]
13 nM | CC1C=Cc2nc(C3CC3)sc2C(=O)N1C1CC2(C1)CN(S(=O)(=O)c1ccccc1F)C2 (racemic) [Example 119]
11 nM | CC1C=Cc2nc(C3(F)CC3)sc2C(=O)N1C1CC2(C1)CN(S(=O)(=O)c1ccccc1F)C2 (racemic) [Example 120]
21 nM | CC1C=Cc2nc(C3CC3)oc2C(=O)N1C1CC2(C1)CN(S(=O)(=O)c1ccccc1F)C2 (racemic) [Example 129]
32 nM | CC1C=Cc2c(noc2C2CC2)C(=O)N1C1CC2(C1)CN(S(=O)(=O)c1ccccc1F)C2 (racemic) [Example 131]
19 nM | Cc1nc2c(s1)C(=O)N(C1CC3(C1)CN(S(=O)(=O)c1ccccc1F)C3)C(C)CO2 (racemic) [Example 174]
18 nM | CCc1nc2c(s1)C(=O)N(C1CC3(C1)CN(S(=O)(=O)c1ccccc1F)C3)C(C)CO2 (racemic) [Example 177]
7 nM | CC1COc2nc(C3CC3)sc2C(=O)N1C1CC2(C1)CN(S(=O)(=O)c1ccccc1F)C2 (racemic) [Example 179]
112 nM | COc1ccc2c(n1)CCC(C)N(C1CC3(C1)CN(S(=O)(=O)c1ccccc1F)C3)C2=O (racemic) [Example 249, 6-[2-(2-fluorophenyl)sulfonyl-2-azaspiro[3.3]heptan-6-yl]-2-methoxy-7-methyl-8,9-dihydro-7H-pyrido[3,2-c]azepin-5-one]

IC50 | Structure (SMILES)
152 nM | CC1CSc2nc(C(F)(F)F)ccc2C(=O)N1C1CC2(C1)CN(S(=O)(=O)c1ccccc1F)C2 (racemic) [Example 259, 4-[2-(2-fluorophenyl)sulfonyl-2-azaspiro[3.3]heptan-6-yl]-3-methyl-8-(trifluoromethyl)-2,3-dihydropyrido[3,2-f][1,4]thiazepin-5-one]
664 nM | CC1c2ccccc2C(=O)N1C1CC2(C1)CN(S(=O)(=O)c1ccccc1)C2 (racemic) [Example 267]
108 nM | CCC1c2ccccc2C(=O)N1C1CC2(C1)CN(S(=O)(=O)c1ccccc1)C2 (racemic) [Example 268]
134 nM | CC1c2cc(F)ccc2C(=O)N1C1CC2(C1)CN(S(=O)(=O)c1ccccc1F)C2 (racemic) [Example 269]
189 nM | CC1c2ccc(F)cc2C(=O)N1C1CC2(C1)CN(S(=O)(=O)c1ccccc1F)C2 (racemic) [Example 270]
24 nM | CCC1c2ccccc2C(=O)N1C1CC2(C1)CN(S(=O)(=O)c1ccccc1F)C2 (racemic) [Example 271]
101 nM | Cc1ccc(F)c(S(=O)(=O)N2CC3(CC(N4C(=O)c5ccccc5C4C)C3)C2)c1 (racemic) [Example 272]
63 nM | CCC1c2ccccc2C(=O)N1C1CC2(C1)CN(S(=O)(=O)c1cc(C)ccc1F)C2 (racemic) [Example 273]
151 nM | CCC1c2ccccc2C(=O)N1C1CC2(C1)CN(S(=O)(=O)c1cc(OC)ccc1F)C2 (racemic) [Example 274]
74 nM | CC1(O)c2cc(F)ccc2C(=O)N1C1CC2(C1)CN(S(=O)(=O)c1ccccc1F)C2 (racemic) [Example 276]
102 nM | CC1(O)c2ccc(F)cc2C(=O)N1C1CC2(C1)CN(S(=O)(=O)c1ccccc1F)C2 (racemic) [Example 277]
146 nM | CC1(O)c2cccnc2C(=O)N1C1CC2(C1)CN(S(=O)(=O)c1ccccc1F)C2 (racemic) [Example 278]
112 nM | CC1(O)c2cc(F)cnc2C(=O)N1C1CC2(C1)CN(S(=O)(=O)c1ccccc1F)C2 (racemic) [Example 279]
89 nM | Cc1cnc2c(c1)C(C)(O)N(C1CC3(C1)CN(S(=O)(=O)c1ccccc1F)C3)C2=O (racemic) [Example 280]
120 nM | COc1ccc2c(n1)C(=O)N(C1CC3(C1)CN(S(=O)(=O)c1ccccc1F)C3)C2(C)O (racemic) [Example 281]
124 nM | CC1(O)c2cnccc2C(=O)N1C1CC2(C1)CN(S(=O)(=O)c1ccccc1F)C2 (racemic) [Example 282]
537 nM | CC1(O)c2ccccc2C(=O)N1C1CC2(C1)CN(S(=O)(=O)c1ccccc1)C2 (racemic) [Example 284]
955 nM | CCC1(O)c2ccccc2C(=O)N1C1CC2(C1)CN(S(=O)(=O)c1ccccc1)C2 (racemic) [Example 285]
213 nM | CCC1(O)c2ccccc2C(=O)N1C1CC2(C1)CN(S(=O)(=O)c1ccccc1F)C2 (racemic) [Example 286]
90 nM | Cc1ccc(F)c(S(=O)(=O)N2CC3(CC(N4C(=O)c5ccccc5C4(C)O)C3)C2)c1 (racemic) [Example 287]
336 nM | CCC1(O)c2ccccc2C(=O)N1C1CC2(C1)CN(S(=O)(=O)c1cc(C)ccc1F)C2 (racemic) [Example 288]
338 nM | CCC1(O)c2ccccc2C(=O)N1C1CC2(C1)CN(S(=O)(=O)c1cc(OC)ccc1F)C2 (racemic) [Example 289]
215 nM | CC1c2cccnc2C(=O)N1C1CC2(C1)CN(S(=O)(=O)c1ccccc1F)C2 (racemic) [Example 291]
